From publication PMC1459931, “Assessment of Xenoestrogens Using Three Distinct Estrogen Receptors and the Zebrafish Brain Aromatase Gene in a Highly Responsive Glial Cell System” (Environmental Health Perspectives, 2005)

Legend:
Assay in all cases: luciferase reporter transactivation (zebrafish Aro-B promoter) in transfected U251-MG cells
Type in all cases: cell-based
Details in all cases: agonist; 48 hr, 37°C, 2% charcoal/dextran FCS
[1] = target: T1, zfER-β1 (zebrafish ER-β1) (Danio rerio, UniProt Q5PR29)
T1 construct: gene esr2b; coding region of receptor cDNA in Topo-pcDNA3 (Menuet et al. 2002), transiently expressed in human U251-MG glial cells; approx. 65 kDa; ER-β1 of Menuet et al. corresponds to esr2b (esr2a is ER-β2)
T1 sequence (Q5PR29 1-592): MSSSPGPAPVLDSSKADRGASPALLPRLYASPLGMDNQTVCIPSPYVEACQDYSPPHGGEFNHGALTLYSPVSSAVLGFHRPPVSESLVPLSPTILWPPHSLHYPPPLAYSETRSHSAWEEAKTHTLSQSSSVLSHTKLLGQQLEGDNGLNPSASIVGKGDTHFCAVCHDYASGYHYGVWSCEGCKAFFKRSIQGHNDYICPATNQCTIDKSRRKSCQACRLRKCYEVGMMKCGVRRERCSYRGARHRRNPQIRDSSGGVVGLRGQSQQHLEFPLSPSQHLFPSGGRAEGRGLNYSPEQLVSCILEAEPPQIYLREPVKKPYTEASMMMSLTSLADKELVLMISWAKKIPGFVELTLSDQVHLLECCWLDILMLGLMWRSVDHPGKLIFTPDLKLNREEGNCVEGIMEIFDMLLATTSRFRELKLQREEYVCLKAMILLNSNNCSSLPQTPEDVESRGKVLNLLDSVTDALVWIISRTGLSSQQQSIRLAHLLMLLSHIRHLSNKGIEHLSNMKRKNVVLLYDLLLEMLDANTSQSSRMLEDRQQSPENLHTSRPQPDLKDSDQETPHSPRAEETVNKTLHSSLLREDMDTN
From the text: luciferase reporter transactivation (zebrafish Aro-B promoter) in transfected U251-MG cells on zfER-β1 (zebrafish ER-β1)

zfER-α (zebrafish ER-α) = target: T2, zfER-α (zebrafish ER-α) (Danio rerio, UniProt P57717)
T2 construct: gene esr1; coding region of receptor cDNA in Topo-pcDNA3 (Menuet et al. 2002), transiently expressed in human U251-MG glial cells; approx. 65 kDa in vitro translated
T2 sequence (P57717 1-569): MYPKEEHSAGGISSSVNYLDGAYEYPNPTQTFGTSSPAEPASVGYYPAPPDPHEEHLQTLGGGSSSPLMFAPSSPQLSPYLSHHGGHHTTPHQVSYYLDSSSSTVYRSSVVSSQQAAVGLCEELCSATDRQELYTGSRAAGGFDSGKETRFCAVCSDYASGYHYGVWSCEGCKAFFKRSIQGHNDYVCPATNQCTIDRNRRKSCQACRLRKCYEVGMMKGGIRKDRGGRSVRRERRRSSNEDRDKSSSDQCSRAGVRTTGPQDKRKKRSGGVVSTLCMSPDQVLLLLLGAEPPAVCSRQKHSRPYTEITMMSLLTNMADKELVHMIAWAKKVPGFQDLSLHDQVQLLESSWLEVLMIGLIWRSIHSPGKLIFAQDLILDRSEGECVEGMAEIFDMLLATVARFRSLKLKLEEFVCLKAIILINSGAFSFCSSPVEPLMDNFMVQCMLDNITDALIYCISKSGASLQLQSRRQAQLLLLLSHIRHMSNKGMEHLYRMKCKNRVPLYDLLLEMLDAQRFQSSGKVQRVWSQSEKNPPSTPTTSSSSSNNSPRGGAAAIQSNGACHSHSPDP
From the text: luciferase reporter transactivation (zebrafish Aro-B promoter) in transfected U251-MG cells on zfER-α (zebrafish ER-α)

[2] = target: T3, zfER-β2 (zebrafish ER-β2) (Danio rerio, UniProt Q7ZU32)
T3 construct: gene esr2a; coding region of receptor cDNA in Topo-pcDNA3 (Menuet et al. 2002), transiently expressed in human U251-MG glial cells; approx. 65 kDa; ER-β2 of Menuet et al. corresponds to esr2a (esr2b is ER-β1)
T3 sequence (Q7ZU32 1-553): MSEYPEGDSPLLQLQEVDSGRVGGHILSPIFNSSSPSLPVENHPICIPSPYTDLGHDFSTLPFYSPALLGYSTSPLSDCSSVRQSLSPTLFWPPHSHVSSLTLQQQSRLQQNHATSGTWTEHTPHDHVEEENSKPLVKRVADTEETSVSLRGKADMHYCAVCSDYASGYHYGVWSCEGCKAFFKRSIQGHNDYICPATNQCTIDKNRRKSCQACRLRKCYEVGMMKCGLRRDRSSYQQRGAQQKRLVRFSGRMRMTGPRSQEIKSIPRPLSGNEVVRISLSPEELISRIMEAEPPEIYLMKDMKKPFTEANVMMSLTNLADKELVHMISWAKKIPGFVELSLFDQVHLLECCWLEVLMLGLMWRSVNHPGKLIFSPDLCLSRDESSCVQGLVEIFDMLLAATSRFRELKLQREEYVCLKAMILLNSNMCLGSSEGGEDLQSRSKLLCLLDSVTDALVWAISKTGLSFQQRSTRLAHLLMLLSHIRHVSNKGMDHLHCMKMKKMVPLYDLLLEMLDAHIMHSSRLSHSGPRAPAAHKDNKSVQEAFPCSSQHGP
From the text: luciferase reporter transactivation (zebrafish Aro-B promoter) in transfected U251-MG cells on zfER-β2 (zebrafish ER-β2)

`C[C@H]1CCC[C@H](O)CCC/C=C/c2cc(O)cc(O)c2C(=O)O1` [α-Zeralenol] was tested, and the EC50 [1] was 0.11 nM, the EC50 (zfER-α (zebrafish ER-α)) was 0.59 nM and the EC50 [2] was 0.15 nM.
